# Experimental data as given in US5670506A, “Halogen, isothiocyanate or azide substituted xanthines” (Cell Therapeutics, Inc., priority 1993, dated 1997).
# pIC50: −log10 of the molar value.
# Experiments:
# human stromal cells = assay: inhibition of proliferation of human stromal cells stimulated with PDGF; assay type: cell-based
# Experimental: (§1) This assay is a model for restenosis and treatment of atherosclerosis and coronary artery disease. Stromal cells were starved in serum-free media for one day and then stimulated with 50 ng/ml PDGF-BB. The drags were added at the indicated concentrations one hour prior to PDGF stimulation. Tritiated thymidine was added for one day at the time of PDGF stimulation and the cells were harvested and counted by liquid scintillation counting 24 hrs later. Background counts (i.e., starved cells) were approximately 1% of control levels.
# Another assay for measuring activity of the inventive compounds involves determining PDGF (platelet derived growth factor) proliferative response using human-derived stromal cells. Human stromal cells are plated (e.g., about 2000 cells per well) in defined media (e.g., 69% McCoy's, 12.5% fetal calf serum, 12.5% horse serum, 1% antibiotics, 1% glutamine, 1% vitamin supplement, 0.8% essential amino acids, 1% sodium pyruvate, 1% sodium bicarbonate, 0.4% non-essential amino acids and 0.36% hydrocortisone). Two to three days later, the stromal cells are starved in serum-free media. Twenty four hours later, the cells are treated with a stimulating agent, such as PDGF-AA, PDGF-BB or basic FGF (fibroblast growth factor) with or without IL-1α or TNF, and tritiated thymidine. Cell proliferation is determined by liquid scintillation counting.
# as §1, with “drugs” for “drags”
# murine thymocytes = assay: inhibition of murine thymocyte proliferation stimulated by ConA and IL-1α; assay type: cell-based, murine (Balb/C mice); details: FIG. 4, 4 days
# Experimental: The drugs (inventive compounds) were added to the cells at the doses indicated two hours prior to activation with ConA and IL-1α. […] Background counts were less than 200 cpm. This in vitro assay is a model for immune suppression and treatment or prevention of autoimmune diseases.
# A third assay measures an ability of an inventive compound to inhibit IL-2-induced proliferation of murine thymocytes. Thymus glands are obtained from 4-6 week old mice and plated as a single cell suspension into flat bottomed wells in RPMI 1640 medium supplemented with 10% fetal calf serum. The inventive compounds are added to appropriate wells and the cells are incubated for 1-2 hrs. Concanavilin A (ConA, 0.25 μg/ml) and IL-1 (20 ng/ml) are added and the plates are incubated for 4 days. Cell proliferation is determined as above. There are also variations for this assay that follow the same basic stimulation and measure inhibition of proliferation format. […]
# This example illustrates the effect of CT1514, CT1525, CT1527, CT1529, CT1577, CT1583, CT1589, CT1595, CT2519, CT1205, CT1801 and CT1908 on inhibition of murine thymocyte proliferation stimulated by Concanavalin A (ConA) and interleukin-2 (IL-2) (FIG. 4). […] The cells were harvested and incorporated tritiated thymidine was determined in a liquid scintillation counter. […]
# [1] = test system: CMV promoter activity in transformed (adenovirus) cells; assay: CMV promoter assay (gene transcription and translation, cytotoxic activity); assay type: cell-based
# Description: This example illustrates data regarding proliferative activity of various inventive compounds for inducting CMV promoter activity. The CMV promoter assay measures gene transcription and translation activity wherein any active compounds will nave cytotoxic activity to inhibit cellular protein synthesis machinery in transformed (adenovirus) cells.
# [2] = test system: mixed lymphocyte assay culture (PBMC); assay: percent viable cells in mixed lymphocyte assay culture after six days; assay type: cell-based, human; details: 100 μM
# Experimental: Control cells that have not been exposed to a drug are generally 78 to 85% viable under such culture conditions. For this graph, all of the compounds were present at 100 μM, which is usually well above their IC50 concentration in this assay (see FIG. 1).
# [3] = test system: TNF release from monocytes in whole blood; assay: ex vivo human TNF model, LPS-mediated TNF release in whole blood; assay type: cell-based; details: FIG. 14
# Experimental: (§2) This model adds LPS to whole blood (normal human volunteers) to trigger a dose-dependent synthesis and extracellular release of TNF according to Desch et al. (Lymphokine Res. 8:141, 1989). The ex vivo model examines whether LPS-mediated release of TNF from monocytes in whole blood can be block by an inventive compound.
# An ex vivo human sepsis model is described in Desch et al., Lymphokine Res. 8:141, 1989 and in Ooi et al., J. Exp. Med. 174:649, 1991. Briefly, whole blood from humans is incubated with LPS (endotoxin). TNF released from cells (mostly from monocytes) is measured. The inventive compounds lower TNF levels as compared with untreated controls in this model.
# as §2, with “This example illustrates a comparative experiment comparing CT1595, CT1529 and CT2519 in an ex vivo human TNF model described herein. This assay is a predictive model for treatment and prevention of septic shock and sepsis syndrome. This” for “This”
# murine splenocytes = assay: inhibition of murine splenocyte proliferation stimulated by anti-mu and IL-4; assay type: cell-based; details: FIG. 5; anti-mu (10 μg/ml) and IL-4 (12.5 ng/ml)
# Experimental: Drug was added to the cells at the doses indicated two hours prior to activation with anti-mu and IL-4. This in vitro assay is a model for immune suppression and treatment or prevention of autoimmune diseases. […] Background counts were less than 200 cpm.
# There are a series of in vitro assays that can be used to measure immunosuppressive activity of a particular compound. These assays are a predictive model for treatment or prevention of autoimmune diseases, such as diabetes, lupus, arthritis, and the like. A first assay measures immunosuppressive activity of a drug at the B cell level. Spleens from adult mice contain immature B cells that express surface IgM. Cross-linking the surface IgM with an anti-mu antibody results in B cell proliferation. Additionally, this activation results in an increased expression of interleukin-4 receptors(IL-4R) on the surface of such cells. IL-4 acts as a growth factor for B cells and will increase the amount of proliferation induced by anti-mu. In the first assay, a mixture of anti-mu and murine IL-4 is added to murine splenocytes to cause their proliferation. Mice spleens are obtained from adult mice and a single cell suspension is prepared in RPMI 1640 medium supplemented with 10% FCS. […] Proliferation is determined on the third day with a pulse of tritiated thymidine. […]
# [4] = U.S. Pat. Nos. 4,515,795 and 4,576,947; cited from earlier work
# [5] = test system: polymorphonuclear leukocytes; details: in response to a stimulator of chemotaxis; U.S. Pat. No. 4,636,507; cited from earlier work
# TNF = details: human, in vivo; cited from earlier work
# PAPH = PAPH blockade in a specific activation pathway; assay type: cell-based, human; details: specific activation pathway that does not involve PI
# Description: The compounds and pharmaceutical compositions of the invention include inhibitors of subspecies of LPAAT and PAPH enzymes with substrate specificity for intermediates with 1,2-diunsaturated and 1-alkyl, 2-unsaturated subspecies. One representative example of such an inhibitor (although not within the genus of inventive compounds) is PTX. […] It should be emphasized that the compounds of the invention affect that subset of PAPH and LPAAT that relates to substrates with unsaturated fatty acids other than arachidonate in the sn-2 position, not the housekeeping forms of these enzymes that serve the PI pathway.
# [6] = test system: ras-transformed NIH/3T3 cells
# LPAAT = assay: formation of remodeled PA (LPAAT), in vitro; assay type: cell-based; details: high PTX concentrations
# Description: Even in the presence of PTX, cells continue to form PA through the action of PLD, and DAG is also formed through the action of phospholipase C on PC and PI. The latter pathway are not inhibited by the inventive compounds or PTX. In PTX-treated cells, DAG derived from remodeled and PLA-generated PA is diminished (e.g., 1,2-sn-dioleoyl DAG, 1-alkyl,2-linoleoyl DAG and 1-alkyl,2-docosahexaneolyl DAG). Therefore, the inventive compounds and PTX inhibit the formation of only a certain species of PA and DAG by selectively inhibiting a specific second messenger pathway that is only activated in cells by noxious stimuli, but is not used to signal normal cellular housekeeping functions.
# [7] = test system: ras-transformed NIH/3T3 cells; assay: serum-stimulated generation of DAG and PA in ras-transformed NIH/3T3 cells; assay type: cell-based; details: pretreatment of cells
# Description: For example, activating ras mutations result in increased generation of DAG on stimulation with mitogens, although the sources of DAG have differed between experimental systems. In nontransformed renal mesangial cells, IL-1β stimulation increased PLA2 and LPAAT activation, resulting in generation of sn-2 unsaturated PA and subsequent hydrolysis to DAG by phosphatidate phosphohydrolase. The ras transformation in NIH/3T3 cells upregulates serum-stimulated generation of DAG and PA. The specific species of DAG that is stimulated by serum is dioleoyl and for PA are dilinoleoyl and dioleoyl. […] The inhibition occurs either through suppressing the generation of PA de novo from lysoPA, or through inhibition of one or both arms of the Lands cycle. […] Therefore, the ras transformation mediates an upregulation of PA through indirect stimulation of PLA2 and/or LPAAT activity.
Compound,"inhibition of human stromal cell proliferation (human stromal cells; FIG. 7, 50 ng/ml PDGF-BB, in words)","pIC50 (human stromal cells; Homo sapiens, read-out: IC50, inhibition of human stromal cell proliferation)",inhibition of thymocyte proliferation (murine thymocytes),cytotoxicity in CMV promoter assay ([1]; in words),"IC50 ([1]; read-out: IC50 (μM), CMV promoter assay)",viability in MLR culture [2],block of LPS-mediated TNF release [3],inhibition of splenocyte proliferation (murine splenocytes),cerebral blood flow [4],stimulation of chemotaxis in polymorphonuclear leukocytes [5],TNF levels in normal volunteers (TNF),PAPH block (PAPH),cytotoxicity associated with inhibition of ras-transformed cells [6],inhibition of ras-transformed NIH/3T3 cells ([6]; vs parental cells),formation of remodeled PA (LPAAT),"generation of phospholipid second messengers (DAG, PA) [7]"
"CC(CCCCn1c(=O)c2c(ncn2C)n(C)c1=O)N=C=S (centres unmarked) [CT2519, 1-(5-isothiocyanatohexyl)-3,7-dimethylxanthine]",strongly inhibit proliferation,> 5.00,most potent drugs,most cytotoxic compound tested,10 µM,not cytotoxic at 100 μM,could block TNF release in a dose-dependent fashion,most potent inhibitors of splenocyte proliferation in a dose-response manner,,,,,,,,
"CC(O)CCCCn1c(=O)c2c(ncn2C)n(C)c1=O (centres unmarked) [M1, 1-(5-hydroxyhexyl)-3,7-dimethylxanthine]",,,,,,,,,increasing cerebral blood flow,stimulate chemotaxis,,,,,,
"CC(=O)CCCCn1c(=O)c2c(ncn2C)n(C)c1=O [PTX, 1-(5-oxohexyl)-3,7-dimethylxanthine]",,,,,,,,,,stimulate chemotaxis,TNF levels were higher among PTX recipients,blocks PAPH,not associated with significant cytotoxicity,inhibits ras-transformed NIH/3T3 cells more than parental cells,blocks formation of remodeled PA,blocks generation of these phospholipid second messengers
